The target of assay [1] is T1, Tyrosine-protein kinase JAK3 (Homo sapiens, UniProt P52333).
T1 sequence (P52333 whole entry): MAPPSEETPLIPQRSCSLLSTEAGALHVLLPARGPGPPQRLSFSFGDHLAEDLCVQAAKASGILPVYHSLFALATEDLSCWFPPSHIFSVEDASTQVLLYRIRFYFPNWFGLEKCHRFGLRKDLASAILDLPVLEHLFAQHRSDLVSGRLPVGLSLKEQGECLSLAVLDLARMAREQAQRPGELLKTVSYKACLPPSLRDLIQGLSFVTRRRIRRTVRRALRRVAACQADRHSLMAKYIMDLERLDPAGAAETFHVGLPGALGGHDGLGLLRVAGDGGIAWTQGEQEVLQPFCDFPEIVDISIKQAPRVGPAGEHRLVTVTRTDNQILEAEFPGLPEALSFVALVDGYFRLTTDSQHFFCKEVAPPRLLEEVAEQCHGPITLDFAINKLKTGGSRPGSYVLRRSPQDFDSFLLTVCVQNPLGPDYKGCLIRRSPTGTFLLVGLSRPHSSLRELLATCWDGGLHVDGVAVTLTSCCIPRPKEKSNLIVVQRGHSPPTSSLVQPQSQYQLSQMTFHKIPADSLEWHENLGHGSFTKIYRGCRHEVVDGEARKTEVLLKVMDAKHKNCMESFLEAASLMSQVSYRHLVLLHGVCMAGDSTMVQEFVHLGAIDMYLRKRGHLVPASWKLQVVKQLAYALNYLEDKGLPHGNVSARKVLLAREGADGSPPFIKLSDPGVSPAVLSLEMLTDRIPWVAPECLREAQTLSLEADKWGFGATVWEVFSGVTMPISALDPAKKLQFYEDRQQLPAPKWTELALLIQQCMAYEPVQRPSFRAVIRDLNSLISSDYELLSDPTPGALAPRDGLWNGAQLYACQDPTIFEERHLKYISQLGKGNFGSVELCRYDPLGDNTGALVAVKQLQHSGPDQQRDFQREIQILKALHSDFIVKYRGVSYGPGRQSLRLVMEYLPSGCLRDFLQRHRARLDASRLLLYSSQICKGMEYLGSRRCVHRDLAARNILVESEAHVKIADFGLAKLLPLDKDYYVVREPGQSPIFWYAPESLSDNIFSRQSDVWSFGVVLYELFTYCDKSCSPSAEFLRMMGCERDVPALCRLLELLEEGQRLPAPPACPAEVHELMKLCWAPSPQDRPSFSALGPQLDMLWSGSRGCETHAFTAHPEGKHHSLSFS
The experiment in a line: Inhibition of JAK3 (unknown origin).

The target in assay [2] is Vascular endothelial growth factor receptor 2 (Homo sapiens, UniProt P35968). The assay is described as follows: Inhibition of N-terminal GST-tagged human VEGFR2 (805 to 1356 residues) expressed in a baculovirus infected Sf9 insect cell incubated for 45 mins by Kinase-Glo max reagent-based luminescence assay. Background: Kinase-Glo measures the ATP left after a reaction by luminescence.

Assay [3] relates to MCF7. The assay is described as follows: Cytotoxicity against human MCF-7 cells incubated for 72 hrs by MTT assay. The format is functional, cell-based. The settings on record: MCF7, 72 h. On the technique in general: Formazan colour is commonly taken as a measure of viable cells.
The subject of assay [4] is HepG2. The experiment in a line: Cytotoxicity against human HepG2 cells incubated for 72 hrs by MTT assay. In kind it is functional, cell-based. The settings on record: HepG2, 72 h.
In assay [5] the test system is A549. The experiment in a line: Cytotoxicity against human A549 cells incubated for 72 hrs by MTT assay. The format is functional, cell-based. The conditions noted are these: A549, 72 h.
Assay [6] is filed under the species Homo sapiens. The assay is described as follows: Selectivity index, ratio of IC50 for human JAK1 expressed in baculovirus expression system to IC50 for human JAK3 expressed in baculovirus expression system.
The species named for assay [7] is Homo sapiens. The experiment in a line: Selectivity index, ratio of IC50 for human JAK2 expressed in baculovirus expression system to IC50 for human JAK3 expressed in baculovirus expression system.
Assay [8] concerns the target Cyclin-dependent kinase 2/cyclin E1 (Homo sapiens, UniProt P24941). The experiment in a line: Inhibition of CDK2/cyclin E (unknown origin) expressed in baculovirus infected Sf21 insect cells using histone H1 as substrate in presence of [gamma33P]ATP.

Broadly, the IC50 is the concentration needed to halve the response being measured. A word on the EC50: it is the concentration needed to bring the measured effect to its halfway point. Low readings indicate a more potent agent, high ones a less potent agent.

Vascular endothelial growth factor receptor 2, sequence (P35968 whole entry, the tested form may be a part): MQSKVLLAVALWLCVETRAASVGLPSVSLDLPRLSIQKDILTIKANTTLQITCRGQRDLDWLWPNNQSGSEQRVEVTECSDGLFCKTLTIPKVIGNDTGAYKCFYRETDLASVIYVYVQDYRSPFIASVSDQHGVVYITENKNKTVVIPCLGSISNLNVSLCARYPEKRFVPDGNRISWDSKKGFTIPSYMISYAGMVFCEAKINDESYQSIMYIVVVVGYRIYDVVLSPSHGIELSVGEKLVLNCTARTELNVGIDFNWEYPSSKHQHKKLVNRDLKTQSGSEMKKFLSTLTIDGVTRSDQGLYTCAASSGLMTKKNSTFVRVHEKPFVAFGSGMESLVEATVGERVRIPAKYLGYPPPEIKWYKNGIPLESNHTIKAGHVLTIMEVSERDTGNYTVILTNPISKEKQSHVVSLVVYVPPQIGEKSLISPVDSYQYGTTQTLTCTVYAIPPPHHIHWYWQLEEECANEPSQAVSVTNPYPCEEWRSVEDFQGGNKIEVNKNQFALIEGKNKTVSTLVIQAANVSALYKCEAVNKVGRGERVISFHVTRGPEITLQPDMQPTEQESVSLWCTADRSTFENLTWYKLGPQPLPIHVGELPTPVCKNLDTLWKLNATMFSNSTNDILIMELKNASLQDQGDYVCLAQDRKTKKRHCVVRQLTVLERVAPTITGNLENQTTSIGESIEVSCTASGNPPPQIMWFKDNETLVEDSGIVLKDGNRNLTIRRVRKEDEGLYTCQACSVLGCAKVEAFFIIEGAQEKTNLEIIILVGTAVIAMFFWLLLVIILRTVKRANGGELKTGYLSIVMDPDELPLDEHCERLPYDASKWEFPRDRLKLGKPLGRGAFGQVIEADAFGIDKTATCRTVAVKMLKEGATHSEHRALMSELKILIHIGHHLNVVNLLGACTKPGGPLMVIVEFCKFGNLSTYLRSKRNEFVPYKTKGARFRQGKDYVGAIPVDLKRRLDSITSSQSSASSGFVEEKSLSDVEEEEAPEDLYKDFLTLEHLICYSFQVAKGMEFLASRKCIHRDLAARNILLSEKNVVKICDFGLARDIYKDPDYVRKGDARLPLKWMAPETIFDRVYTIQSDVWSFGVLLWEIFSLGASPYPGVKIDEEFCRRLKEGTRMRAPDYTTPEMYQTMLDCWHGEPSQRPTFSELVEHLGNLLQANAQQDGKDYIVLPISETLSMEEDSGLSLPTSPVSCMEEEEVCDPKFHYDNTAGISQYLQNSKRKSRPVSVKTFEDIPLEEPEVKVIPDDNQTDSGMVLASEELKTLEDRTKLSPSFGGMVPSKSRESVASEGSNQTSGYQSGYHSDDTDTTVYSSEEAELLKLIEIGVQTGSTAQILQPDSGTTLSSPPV

In turn, `C[C@@H]1CCN(C(=O)CC#N)C[C@@H]1N(C)c1ncnc2[nH]ncc12` yielded an IC50 in assay [1] of 0.0016 µM. In assay [2], `COc1ccc(-n2nc(C)c3c(Nc4ccc(NC(=O)Nc5ccc(Cl)c(C(F)(F)F)c5)cc4)ncnc32)cc1` yielded an IC50 of 0.22 µM. For `Cc1c(C(=O)Nc2ccc(Oc3ncnc4c3cnn4C)c(F)c2)nnn1-c1ccc(F)cc1`, the EC50 in assay [3], in assay [4] and in assay [5] was ≤ 10 µM throughout. Take `C=CC(=O)Nc1cccc(Cn2ncc3cnc(Nc4cnn(CCOC)c4)nc32)c1`: the Ratio IC50 in assay [6] and in assay [7] was > 376 in each case.

Take `O=[N+]([O-])c1cccc(Nc2nc(SCCc3ccccc3)nc3[nH]ncc23)c1`: in assay [8], the IC50 stood at 5.1 µM.

For the compound `O=C(Oc1nc(SCCc2ccccc2)nc2[nH]ncc12)c1cc2ccccc2o1`, in assay [8], the half-maximal inhibitory concentration (IC50) turned out to be 6.8 µM.

For the origin of these results see ChEMBL document CHEMBL4673190, “Recent developments in anticancer kinase inhibitors based on the pyrazolo[3,4-d]pyrimidine scaffold” (RSC Med Chem, 2020).
